Test [1] addresses T1, D(3) dopamine receptor (Homo sapiens, UniProt P35462). As to the kind of experiment: Displacement of [3H]spiperone form human cloned dopamine D3 receptor expressed in CHO cells. The format is cell-based. A general note: In a radioligand displacement assay an active substance lowers the binding of a labelled ligand.
The next test addresses D(2) dopamine receptor (Homo sapiens, UniProt P14416). The test can be described thus: Displacement of [3H]spiperone form human cloned dopamine D2L receptor expressed in CHO cells. In kind it is cell-based.
The species entered for the next test is Homo sapiens. As to the kind of experiment: Selectivity ratio of Ki for human dopamine D2 receptor to Ki for human dopamine D3 receptor.
For test [2], the target named is T1, D(3) dopamine receptor. The test can be described thus: Activation of human dopamine D3 receptor expressed in CHO cells assessed as [35S]GTPgammaS binding by scintillation proximity assay. The format is functional, cell-based. A general note: GTPγS resists hydrolysis and so accumulates on activated G proteins.

Where only a bound is given, the exact number is not on record here.

Sequence of D(2) dopamine receptor (P14416 whole entry): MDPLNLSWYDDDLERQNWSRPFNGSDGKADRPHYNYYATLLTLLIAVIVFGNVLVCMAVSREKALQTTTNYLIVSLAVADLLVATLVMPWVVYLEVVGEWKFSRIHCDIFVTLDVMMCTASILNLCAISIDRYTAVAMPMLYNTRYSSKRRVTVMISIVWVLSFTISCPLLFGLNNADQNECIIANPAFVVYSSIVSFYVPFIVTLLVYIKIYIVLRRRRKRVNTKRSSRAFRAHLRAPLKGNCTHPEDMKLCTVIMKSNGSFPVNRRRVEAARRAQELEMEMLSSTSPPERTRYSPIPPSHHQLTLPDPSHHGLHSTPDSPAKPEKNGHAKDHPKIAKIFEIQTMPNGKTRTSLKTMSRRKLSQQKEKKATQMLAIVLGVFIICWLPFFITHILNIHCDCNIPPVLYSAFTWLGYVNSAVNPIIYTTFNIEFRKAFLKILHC
T1 sequence (P35462 whole entry): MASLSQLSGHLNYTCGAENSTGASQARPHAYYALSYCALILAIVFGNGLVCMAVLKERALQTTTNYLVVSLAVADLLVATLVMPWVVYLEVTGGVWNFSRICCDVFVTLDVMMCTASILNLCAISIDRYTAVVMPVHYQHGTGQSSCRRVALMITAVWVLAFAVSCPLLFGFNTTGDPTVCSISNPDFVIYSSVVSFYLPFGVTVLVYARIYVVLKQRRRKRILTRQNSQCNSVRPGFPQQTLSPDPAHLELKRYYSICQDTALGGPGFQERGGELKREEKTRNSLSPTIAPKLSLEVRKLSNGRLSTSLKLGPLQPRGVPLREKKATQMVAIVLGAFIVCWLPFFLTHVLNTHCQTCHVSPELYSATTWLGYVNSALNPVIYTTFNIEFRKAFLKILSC

A word on the Ki: it is the dissociation constant of the complex between target and ligand, obtained from inhibition or displacement. Higher therefore signals lower affinity. For `CCCN1CCO[C@H]2c3cc(C(N)=O)ccc3CC[C@@H]21`, the Ki was 2.45 µM on D(3) dopamine receptor [1] and above 10 µM at D(2) dopamine receptor.

On D(3) dopamine receptor [1], `CCCN1CCO[C@@H]2c3cc(C(=O)OCC)ccc3CC[C@H]21` gave a Ki of 2.63 µM. This counts as single-digit micromolar.

For the compound `CCCN1CCO[C@@H]2c3cc(-c4nnn[nH]4)ccc3CC[C@H]21`, the Ki on D(3) dopamine receptor [1] and on D(2) dopamine receptor was above 10 µM throughout.

A word on the EC50: it is the concentration needed to bring the measured effect to its halfway point. With `CCCN1CCO[C@@H]2c3cc(C(N)=O)ccc3CC[C@H]21`, the Ki was 0.0148 µM on D(3) dopamine receptor [1] and 1.2 µM at D(2) dopamine receptor. The Ratio Ki in the test filed under Homo sapiens is 80. The EC50 on D(3) dopamine receptor [2] was 0.00229 µM.

`CCCN(CCC)CCc1cccc2c1CC(=O)N2` [ROPINIROLE]: the Ki at D(2) dopamine receptor was 0.692 µM. This lies in the sub-micromolar range.

On D(2) dopamine receptor, `CCCN1CCO[C@@H]2c3cc4c(cc3CC[C@H]21)COC4=O` showed an inhibition constant (Ki) of 2.04 µM.

For `CCCN1CCO[C@@H]2c3cc4c(cc3CC[C@H]21)CN(C)C4=O`, the inhibition constant Ki on D(3) dopamine receptor [1] is 2.19 µM; on D(2) dopamine receptor, above 10 µM.

`CCCN1CCO[C@@H]2c3cc4c(=O)[nH]ccc4cc3CC[C@H]21` showed a Ki on D(2) dopamine receptor of 1.2 µM.

Turning to `CCCN1CCO[C@@H]2c3cc(C(C)=O)ccc3CC[C@H]21`, the Ki at D(3) dopamine receptor [1] was 0.0955 µM; on D(2) dopamine receptor, 3.09 µM. Further, the Ratio Ki in the test filed under Homo sapiens was determined as 32.

For the compound `CCCN1CCO[C@@H]2c3cc(C(=O)O)ccc3CC[C@H]21`, the Ki at D(3) dopamine receptor [1] was 3.31 µM; at D(2) dopamine receptor it was above 10 µM.

With `CCCN1CCO[C@@H]2c3cc(C(=O)N(C)C)ccc3CC[C@H]21`, the figures for the inhibition constant (Ki) at D(3) dopamine receptor [1] and on D(2) dopamine receptor were above 10 µM and 1.86 µM, respectively.

On to `CCCN1CCO[C@@H]2c3cc(C#N)ccc3CC[C@H]21`, for which the Ki is 0.0398 µM on D(3) dopamine receptor [1] and 0.794 µM on D(2) dopamine receptor. Moreover, the Ratio Ki in the test listed under Homo sapiens worked out at 20.

For `CCCN1CCO[C@@H]2c3cc4c(cc3CC[C@H]21)CCNC4=O`, on D(2) dopamine receptor, the affinity corresponds to a Ki of 0.776 µM.

Take `CCCN1CCO[C@@H]2c3cc(C(=O)OC)ccc3CC[C@H]21`: the Ki was above 10 µM at D(3) dopamine receptor [1] and above 1 µM at D(2) dopamine receptor.

`CCCN1CCO[C@@H]2c3cc4c(cc3CC[C@H]21)CCOC4=O`: the Ki was 0.12 µM on D(3) dopamine receptor [1] and 1.48 µM on D(2) dopamine receptor. Further, the Ratio Ki in the test filed under Homo sapiens is 12.5.

Turning to `CCCN1CCOC2c3cc(C(N)=O)ccc3CCC21` (racemic), the Ki on D(3) dopamine receptor [1] was 0.0195 µM; on D(2) dopamine receptor, 0.759 µM. Moreover, in the test filed under Homo sapiens, the Ratio Ki stood at 40.

On to `CCCN1CCO[C@@H]2c3cc(C(=O)Nc4ccc(OC)cc4)ccc3CC[C@H]21`, for which the Ki was 2.75 µM at D(3) dopamine receptor [1] and above 10 µM at D(2) dopamine receptor.

Regarding `CCCN1CCO[C@@H]2c3cc(C(=O)NCc4ccc(OC)cc4)ccc3CC[C@H]21`, the values for the Ki at D(3) dopamine receptor [1] and on D(2) dopamine receptor were above 10 µM and 3.39 µM, respectively.

Turning to `CCCN1CCO[C@@H]2c3cc(C(=O)NC)ccc3CC[C@H]21`, the Ki was above 10 µM on D(3) dopamine receptor [1] and 7.94 µM at D(2) dopamine receptor.

Consider `CCCCNC(=O)c1ccc2c(c1)[C@H]1OCCN(CCC)[C@@H]1CC2`, for which the inhibition constant Ki at D(3) dopamine receptor [1] is above 10 µM; at D(2) dopamine receptor, 4.57 µM.

The values above are taken from ChEMBL document CHEMBL1154395, “Modulations of the amide function of the preferential dopamine D3 agonist (R,R)-S32504: improvements of affinity and selectivity for D3 versus D2 receptors” (Bioorg Med Chem Lett, 2009).
